{
  "source": "patent US9932522B2",
  "about": "“Electrochromic compound, electrochromic composition, display element, and dimming element” (Ricoh Company, Ltd., priority 2014, dated 2018)",
  "assay": "Solubility evaluation of electrochromic compound",
  "details": "dissolved to saturation, filtered through 0.5 μm PTFE filter, residue weighed; for Solubility, solvent TFP: 2,2,3,3-tetrafluoropropanol (TFP); for Solubility, solvent DMF: N,N-dimethylformamide (DMF)",
  "description": "The residue was filtered with a PTFE filter having the average pore diameter of 0.5 μm, and the solvent was dried under the reduced pressure. Then, the residue was weight to calculate an amount of the solute dissolved in each solvent.",
  "data": [
    {"compound": "O=P(O)(O)CCCCCCCC[n+]1ccc(-c2ccc(-c3cccs3)cc2)cc1.[Br-]", "note": "[Compound 1b]", "values": [
      {"measurement": "Solubility, solvent TFP", "value": "A (the solubility of 5% by mass or greater was attained relative to each solvent)"},
      {"measurement": "Solubility, solvent DMF", "value": "A (the solubility of 5% by mass or greater was attained relative to each solvent)"}
    ]},
    {"compound": "O=P(O)(O)CCCCCCCC[n+]1ccc(-c2ccc(-c3cncs3)cc2)cc1.[Br-]", "note": "[Compound 2b]", "values": [
      {"measurement": "Solubility, solvent TFP", "value": "A (the solubility of 5% by mass or greater was attained relative to each solvent)"},
      {"measurement": "Solubility, solvent DMF", "value": "A (the solubility of 5% by mass or greater was attained relative to each solvent)"}
    ]},
    {"compound": "O=P(O)(O)CCCCCCCC[n+]1ccc(-c2ccc(-c3nccs3)cc2)cc1.[Br-]", "note": "[Compound 3b]", "values": [
      {"measurement": "Solubility, solvent TFP", "value": "A (the solubility of 5% by mass or greater was attained relative to each solvent)"},
      {"measurement": "Solubility, solvent DMF", "value": "A (the solubility of 5% by mass or greater was attained relative to each solvent)"}
    ]},
    {"compound": "COc1nc(OC)nc(-c2ccc(-c3cc[n+](CCCCCCCCP(=O)(O)O)cc3)cc2)n1.[Br-]", "note": "[Compound 4b]", "values": [
      {"measurement": "Solubility, solvent TFP", "value": "A (the solubility of 5% by mass or greater was attained relative to each solvent)"},
      {"measurement": "Solubility, solvent DMF", "value": "A (the solubility of 5% by mass or greater was attained relative to each solvent)"}
    ]},
    {"compound": "O=P(O)(O)CCCCCCCC[n+]1ccc(-c2ccc(-c3nc(-c4ccccc4)nc(-c4ccccc4)n3)cc2)cc1.[Br-]", "note": "[Compound 5b]", "values": [
      {"measurement": "Solubility, solvent TFP", "value": "A (the solubility of 5% by mass or greater was attained relative to each solvent)"},
      {"measurement": "Solubility, solvent DMF", "value": "A (the solubility of 5% by mass or greater was attained relative to each solvent)"}
    ]},
    {"compound": "O=P(O)(O)CCCCCCCC[n+]1ccc(-c2ccc(-c3ncccn3)cc2)cc1.[Br-]", "note": "[Compound 6b]", "values": [
      {"measurement": "Solubility, solvent TFP", "value": "A (the solubility of 5% by mass or greater was attained relative to each solvent)"},
      {"measurement": "Solubility, solvent DMF", "value": "A (the solubility of 5% by mass or greater was attained relative to each solvent)"}
    ]},
    {"compound": "O=P(O)(O)CCCCCCCC[n+]1cccc(-c2ccc(-c3cccs3)cc2)c1", "note": "[Compound 12b]", "values": [
      {"measurement": "Solubility, solvent TFP", "value": "A (the solubility of 5% by mass or greater was attained relative to each solvent)"},
      {"measurement": "Solubility, solvent DMF", "value": "A (the solubility of 5% by mass or greater was attained relative to each solvent)"}
    ]}
  ]
}
